Source: patent US8865641B2, “Methods of treatment of fatty liver disease by pharmacological activation of cholinergic pathways” (priority 2011, dated 2014)

Experiments:
Format in all cases: in vivo, C57BL/6J mice
[1] = tested on: mice with high-fat diet-induced obesity; test: Fatty liver manifestations (plasma ALT, liver weight, hepatic steatosis on H&E liver sections) in high-fat diet-fed mice; details: 4 mg/kg i.p. once daily for 4 weeks
Description: (§1) Experiments with male C57BL/6J mice (5-6 month old, Jackson Lab) were performed in accordance with the NIH Guidelines under protocols approved by the IACUC Committee of the Feinstein Institute for Medical Research, North Shore-LIJ Health System, Manhasset, N.Y., USA.
(§2) C57BL/6J mice were initially fed a regular chow for 10 days and then switched to a high-fat diet (D12492, 60% kcal from fat, shown in FIG. 2) or its corresponding low-fat control diet (D12450B, 10% kcal from fat, shown in FIG. 1) (Research Diets, New Brunswick, N.J.) for 12 weeks. After the first 8 weeks mice on the high-fat diet were divided into 2 groups and treated with saline (i.p. once daily) or galantamine (Galanthamine Hydrobromide, EMD Biosciences, Inc., La Jolla, Calif., USA) (4 mg/kg, i.p., once daily) for the remaining 4 weeks of the study. In parallel, mice on the low-fat (control) diet were treated with saline. Body weight and food intake were determined on a weekly basis by trained personnel of the Center for Comparative Physiology at the Feinstein Institute, who were blinded to treatment groups. At the end of the experimental time period mice were euthanized and abdominal adiposity, liver weight, cytokine and adipokine levels, metabolic profile, insulin resistance, and liver histology were evaluated. In a separate experiment, groups of mice were fed and treated and body weights and food intake recorded as described above. […]
(§3) Plasma samples were sent to Millipore and plasma insulin, leptin, MCP-1, PAI-1, resistin, TNF and IL-6 levels were determined by using the Millipore's MILLIPLEX map mouse adipokine panel assay with the following detection sensitivity limits: leptin 16.71 pg/mL; resistin 1.79 pg/mL; IL-6 1.89 pg/mL; TNF 4.39 pg/mL; MCP-1 14.4 pg/mL; PAI-1 16.4 pg/mL, insulin 42.2 pg/mL. Plasma samples were sent to IDEXX and plasma levels of total cholesterol and ALT were determined by using IDEXX's Olympus analyzers and spectrophotometric determination. Plasma adiponectin was measured by using the mouse adiponectin/Acrp30 immunoassay (R&D Systems) according to the manufacturer's recommendations.
Formalin fixed liver tissue was imbedded in paraffin, sliced and then liver tissue sections were subjected to hematoxylin and eosin (H&E) staining and microscopic slides prepared. Hepatic steatosis was determined by microscopic evaluation of H&E stained liver sections for lipid accumulation by using Zeiss apotome and semi-quantified by applying a previously implemented grading criteria: no fat accumulation (grade 0); less than 33% fat-containing hepatocytes (grade 1); less than 66% fat-containing hepatocytes (grade 2); more than 66% fat-containing hepatocytes (grade 3).

[2] = tested on: mice with high-fat diet-induced obesity; test: Body weight, food intake and abdominal adiposity in high-fat diet-fed mice; details: for body weight: 4 mg/kg i.p. once daily, FIG. 3A
Description: as §1
(§4) C57BL/6J mice were initially fed a regular chow for 10 days and then switched to a high-fat diet (D12492, 60% kcal from fat, shown in FIG. 2) or its corresponding low-fat control diet (D12450B, 10% kcal from fat, shown in FIG. 1) (Research Diets, New Brunswick, N.J.) for 12 weeks. After the first 8 weeks mice on the high-fat diet were divided into 2 groups and treated with saline (i.p. once daily) or galantamine (Galanthamine Hydrobromide, EMD Biosciences, Inc., La Jolla, Calif., USA) (4 mg/kg, i.p., once daily) for the remaining 4 weeks of the study. In parallel, mice on the low-fat (control) diet were treated with saline. Body weight and food intake were determined on a weekly basis by trained personnel of the Center for Comparative Physiology at the Feinstein Institute, who were blinded to treatment groups. At the end of the experimental time period mice were euthanized and abdominal adiposity, liver weight, cytokine and adipokine levels, metabolic profile, insulin resistance, and liver histology were evaluated. In a separate experiment, groups of mice were fed and treated and body weights and food intake recorded as described above. At the end of the experimental time period mice were subjected to the insulin sensitivity test or the glucose tolerance test as described below.
(§5) After an overnight fast and following body weight and blood glucose determination mice were euthanized by CO2 asphyxiation. Heparinized blood was obtained by cardiac puncture and centrifuged within 30 min at 5,000 rpm for 10 min. Visceral adipose tissues and liver were harvested, rinsed with saline, and weighed. One piece of liver (the biggest lobe) was fixed in formalin for further H&E staining. Plasma and visceral fats (were frozen on dry ice) were transferred at −20° C. prior to further manipulations.

[3] = tested on: mice with high-fat diet-induced obesity; test: Plasma cytokine/adipokine levels in high-fat diet-fed mice (MILLIPLEX mouse adipokine panel; adiponectin immunoassay); details: 4 mg/kg i.p. once daily for 4 weeks
Description: as §4, §5, §3

[4] = tested on: mice with high-fat diet-induced obesity; test: Fasting blood glucose, plasma insulin, HOMA-IR and plasma total cholesterol in high-fat diet-fed mice; details: 4 mg/kg i.p. once daily for 4 weeks, HFD-G vs HFD-S mice
Description: as §4
Blood glucose during the study was measured by nicking the tails and using the Contour blood glucose meter (Bayer, Elkhart, Ind.) with Contour blood glucose test strips according to the manufacturer's recommendations. After blood collection the cuts were compressed with sterile gauze until bleeding termination.
as §3
Insulin resistance was evaluated by using glucose and insulin level values and by applying the homeostatic model assessment-insulin resistance (HOMA-IR) formula, presented in Mlinar et al. (2007) Molecular mechanisms of insulin resistance and associated diseases. Clin Chim Acta 375:20-35, the relevant teachings of which is incorporated herein by reference. Specifically, the expression used to evaluate insulin resistance is: HOMA index=insulin (mU/L)×[glucose (mmol/L)/22.5] […]

[5] = tested on: mice with high-fat diet-induced obesity; test: Separate experiment: body weight and food intake in high-fat diet-fed mice before IST and GTT; details: 4 mg/kg i.p. once daily for 4 weeks
Description: as §2
Separate groups of mice were fed and treated and body weights and food intake recorded as described above (in Experimental design). […]

[6] = tested on: mice with high-fat diet-induced obesity; test: Insulin sensitivity test (IST) in high-fat diet-fed mice
Description: (§6) Separate groups of mice were fed and treated and body weights and food intake recorded as described above (in Experimental design). At the end of the 12 week period, mice from the three experimental groups were used in the insulin sensitivity and glucose tolerance tests. In the insulin sensitivity test, after an overnight (18 hours) fast, mice (n=10 per group) were weighed and administered i.p. with insulin (Humulin R, Lilly, 0.5 units/kg). In the glucose tolerance test, after an overnight (21 hours) fast, mice (n=10 per group) were weighed and injected i.p. with glucose (10% D glucose solution, Sigma, 1 g/kg). Glucose levels were determined at 0, 15, 30, 60, and 120 min after insulin or glucose administration in blood from the tail vein by using the Contour blood glucose meter (Bayer, Elkhart, Ind.) with Contour blood glucose test strips.

[7] = tested on: mice with high-fat diet-induced obesity; test: Glucose tolerance test (GTT) in high-fat diet-fed mice; details: HFD-G as compared to HFD-S mice
Description: as §6

[8] = 4 mg/kg i.p. once daily for 4 weeks, HFD-G group, Table 1 in FIG. 4

SMILES: COc1ccc2c3c1O[C@H]1C[C@@H](O)C=C[C@@]31CCN(C)C2 [galantamine]
- hepatocyte fat accumulation (steatosis), microscopic observations ([1]; HFD-G mice, H&E liver sections, FIG. 9): decreased lipid accumulation
- liver weight ([1]; HFD-G vs HFD-S mice, FIG. 7B): significant liver weight decrease
- plasma alanine aminotransferase (ALT) levels ([1]; HFD-G vs HFD-S mice, end of 12 week study, FIG. 7A): significantly decreased
- lipid accumulation in livers, semi-quantitative analysis ([1]; HFD-G vs HFD-S mice, steatosis grade 0-3, FIG. 10): significantly reduced
- mesenteric adipose tissue weight [2, 8]: significantly reduced
- retroperitoneal/perirenal adipose tissue weight [2, 8]: significantly reduced
- food intake ([2]; 4 mg/kg i.p. once daily for 4 weeks, HFD-G vs HFD-S group during treatment, FIG. 3B): additional suppression of food intake
- body weight ([2]; HFD-G mice at week 9 as compared to week 8, then sustained): lower after the first week of treatment
- body weight ([2]; HFD-G vs HFD-S mice at weeks 11 and 12): lower than the weight of HFD-S mice
- plasma TNF levels ([3]; HFD-G group, no value above the assay sensitivity limit): < 4.39 pg/mL
- plasma MCP-1 levels ([3]; HFD-G mice, FIG. 5C): significantly reduced
- plasma IL-6 levels ([3]; HFD-G vs HFD-S mice, FIG. 5A): significantly reduced
- plasma leptin levels ([3]; HFD-G vs HFD-S mice, FIG. 5B): significantly reduced
- plasma resistin levels ([3]; HFD-G vs HFD-S mice, FIG. 5D): significantly lowered
- plasma adiponectin levels ([3]; HFD-G vs HFD-S mice, FIG. 5F): a certain increase
- plasma plasminogen activator inhibitor-1 (PAI-1) levels ([3]; HFD-S higher than LFD-S and HFD-G mice, FIG. 5E): none of these differences were statistically significant
- fasting blood glucose levels ([4]; FIG. 6A): significantly reduced
- plasma insulin levels ([4]; FIG. 6B): significantly reduced
- plasma total cholesterol levels ([4]; FIG. 6D): significantly decreased
- insulin resistance (HOMA-IR) ([4]; calculated from glucose and insulin, FIG. 6C): reversed this insulin resistance
- body weight ([5]; HFD-G mice, while HFD-S continued to increase, FIG. 11A): decreased
- food intake ([5]; HFD-G vs HFD-S group, FIG. 11B): significantly lower
- blood glucose levels in IST at 15 min and 30 min ([6]; HFD-G as compared to HFD-S mice, insulin 0.5 units/kg i.p. after overnight fast): significantly lower
- blood glucose levels in IST at 120 min ([6]; HFD-G as compared to LFD-S mice, insulin 0.5 units/kg i.p. after overnight fast): significantly lower
- time of lowest blood glucose levels in IST ([6]; HFD-G mice after insulin 0.5 units/kg i.p., unchanged at 60 min, increased at 120 min, FIG. 12): 30 min
- area under the curve of the GTT data ([7]; FIG. 13B): significantly lower
- blood glucose levels in GTT ([7]; glucose 1 g/kg i.p. after overnight fast, FIG. 13A): suppressed blood glucose levels
